Where two headings read alike, the source gives them in different places.
Test system: cholesterol absorption
Assay: Inhibition of cholesterol absorption in rats fed 1% cholesterol:0.5% cholic acid diet
Type: in vivo, male Sprague-Dawley rats
Settings: rat, 2 weeks; for response vs control in vivo at 0.03 % / response vs control in vivo at 0.001 % / response vs control in vivo at 0.003 % / response vs control in vivo at 0.01 %: po, 336 h; for response vs control in vivo at 0.03 %: dose .03% of the diet; for response vs control in vivo at 0.001 %: dose .001% of the diet; for response vs control in vivo at 0.01 %: dose .01% of the diet
Protocol: Inhibition of cholesterol absorption was determined by feeding male Sprague-Dawley rats, weighing 150-170 g, a 1% cholesterol:0.5% cholic acid diet for 2 weeks. The diet also contained compounds being tested at a dose of 0.001, 0.003, 0.01, or 0.03% of the diet. Control rats were fed the same diet without any compound. At the end of the test, the rats were sacrificed by decapitation. Blood was collected, centrifuged at […] for 10 minutes at 4° C.; and the serum was then analyzed for cholesterol and triglycerides enzymatically by the method of Trinder, P., Analyst, 77, 321 (1952) on a Centrifichem 400 analyzer. Livers were removed, a 0.4 g sample was taken from the center of the large lobe, and the sample was subjected to saponification using 25% saturated potassium hydroxide in ethanol. The resulting neutral sterols were extracted with petroleum ether and the extract analyzed for cholesterol. The effectiveness of the compound in inhibiting cholesterol absorption was measured by the lowering of either serum cholesterol or liver cholesterol relative the values for control rats.
Compounds which produced statistically significant inhibition of cholesterol absorption are considered to be active. Liver sterol (LS) and serum sterol (SS) values are expressed as a percentage of control values.

[1] = read-out: LS (liver sterol), percentage of control values
[2] = read-out: SS (serum sterol), percentage of control values
[3] = dose .003% of the diet, read-out: LS (liver sterol), percentage of control values
[4] = dose .003% of the diet, read-out: SS (serum sterol), percentage of control values

Compound	response vs control in vivo at 0.001 % [1]	response vs control in vivo at 0.001 % [2]	response vs control in vivo at 0.003 % [3]	response vs control in vivo at 0.003 % [4]	also measured
1-(n-Heptyl)-1-[4-(1,5-dimethylhexyl)benzyl]-3-(2,4,6-trifluoromethylphenyl)urea	–	–	–	–	LS (liver sterol), percentage of control values (dose .003% of the diet): 65 percentage of control values; SS (serum sterol), percentage of control values (dose .003% of the diet): 57 percentage of control values
CC(C)(C)CCN(Cc1ccc(Cl)cc1)C(=O)Nc1ccc(C(F)(F)F)cc1 [1-(3,3-Dimethylbutyl)-1-(4-chlorobenzyl)-3-(4-trifluoromethylphenyl)urea]	–	–	–	–	response vs control in vivo at 0.03 % [1]: 70%; response vs control in vivo at 0.03 % [2]: 85%
CCCCc1ccc(CN(CCC(C)(C)C)C(=O)Nc2ccc(C(F)(F)F)cc2)cc1 [1-(3,3-Dimethylbutyl)-1-[4-(n-butyl)benzyl]-3-(4-trifluoromethylphenyl)urea]	–	–	–	–	response vs control in vivo at 0.03 % [1]: 86%; response vs control in vivo at 0.03 % [2]: 100%
CC(C)CCCCN(Cc1ccc(CCC(C)C)cc1)C(=O)Nc1c(F)cc(F)cc1F [1-(Isoheptyl)-1-[4-(isopentyl)benzyl]-3-(2,4,6-trifluorophenyl)urea]	45%	33%	–	–	–
CC(C)CCCCN(Cc1ccc(CCC(C)C)cc1)C(=O)Nc1ccc(F)cc1F [1-(Isoheptyl)-1-[4-(isopentyl)benzyl]-3-(2,4-difluorophenyl)urea]	–	–	45%	24%	–
Cc1cc(Cl)cc(C)c1NC(=O)N(CCCCC(C)C)Cc1ccc(CCC(C)C)cc1 [1-(Isoheptyl)-1-[4-(isopentyl)benzyl]-3-(4-chloro-2,6-dimethylphenyl)urea]	40%	40%	–	–	–
CCCCCCOc1ccc(CN(CCCC)C(=O)Nc2c(C)cc(C)cc2C)cc1 [1-(n-Butyl)-1-(4-hexyloxybenzyl)-3-(2,4-trimethylphenyl)urea]	–	–	–	–	response vs control in vivo at 0.03 % [1]: 15%; response vs control in vivo at 0.03 % [2]: 54%
CCCCCCCN(Cc1ccc(C(C)CCCC(C)C)cc1)C(=O)Nc1ccc(F)cc1F (stereo not drawn) [1-(n-Heptyl)-1-[4-(1,5-dimethylhexyl)benzyl]-3-(2,4-difluorophenyl)urea]	88%	83%	–	–	–
CCCCCCCN(Cc1ccc(C(C)CCCC(C)C)cc1)C(=O)Nc1c(C)cc(Cl)cc1C (stereo not drawn) [1-(n-Heptyl)-1-[4-(1,5-dimethylhexyl)benzyl]-3-(4-chloro-2,6-dimethylphenyl)urea]	100%	94%	–	–	–
CCCCCCCN(Cc1ccc(CC(C)(C)C)cc1)C(=O)Nc1c(F)cc(F)cc1F [1-(n-Heptyl)-1-[4-(2,2-dimethylpropyl)phenylmethyl]-3-(2,4,6-trifluorophenyl)urea]	–	–	55%	38%	–
CCCCCCCN(Cc1ccc(CC(C)(C)C)cc1)C(=O)Nc1ccc(F)cc1F [1-(n-Heptyl)-1-[4-(2,2-dimethylpropyl)phenylmethyl]-3-(2,4-difluorophenyl)urea]	–	–	–	–	response vs control in vivo at 0.01 % [1]: 51%; response vs control in vivo at 0.01 % [2]: 22%
CCCCCCCN(Cc1ccc(CC(C)(C)C)cc1)C(=O)Nc1c(C)cc(Cl)cc1C [1-(n-Heptyl)-1-[4-(2,2-dimethylpropyl)phenylmethyl]-3-(4-chloro-2,6-dimethylphenyl)urea]	–	–	54%	41%	–
CCCCCCCN(Cc1ccc(CC(C)C(C)CC)cc1)C(=O)Nc1c(F)cc(F)cc1F (stereo not drawn) [1-(n-Heptyl)-1-[4-(2,3-dimethylpentyl)benzyl]-3-(2,4,6-trifluorophenyl)urea]	–	–	–	–	response vs control in vivo at 0.01 % [1]: 31%; response vs control in vivo at 0.01 % [2]: 33%
CCCCCCCN(Cc1ccc(CC(C)C(C)CC)cc1)C(=O)Nc1ccc(F)cc1F (stereo not drawn) [1-(n-Heptyl)-1-[4-(2,3-dimethylpentyl)benzyl]-3-(2,4-difluorophenyl)urea]	–	–	–	–	response vs control in vivo at 0.01 % [1]: 63%; response vs control in vivo at 0.01 % [2]: 48%
CCCCCCCN(Cc1ccc(CCOC(C)=O)cc1)C(=O)Nc1ccc(F)cc1F [1-(n-Heptyl)-1-[4-(2-acetoxyethyl)benzyl]-3-(2,4-difluorophenyl)urea]	–	–	60%	55%	–
CCCCCCCN(Cc1ccc(CC(CC)CC)cc1)C(=O)Nc1c(F)cc(F)cc1F [1-(n-Heptyl)-1-[4-(2-ethylbutyl)benzyl)-3-(2,4,6-trifluorophenyl)urea]	75%	120%	–	–	–
CCCCCCCN(Cc1ccc(CC(CC)CC)cc1)C(=O)Nc1ccc(F)cc1F [1-(n-Heptyl)-1-[4-(2-ethylbutyl)benzyl]-3-(2,4-difluorophenyl)urea]	–	–	98%	66%	–

Compound	response vs control in vivo at 0.001 % [1]	response vs control in vivo at 0.001 % [2]	response vs control in vivo at 0.003 % [3]	response vs control in vivo at 0.003 % [4]	also measured
CCCCCCCN(Cc1ccc(CC(CC)CC)cc1)C(=O)Nc1c(C)cc(Cl)cc1C [1-(n-Heptyl)-1-[4-(2-ethylbutyl)benzyl]-3-(4-chloro-2,6-dimethylphenyl)urea]	94%	62%	–	–	–
CCCCCCCN(Cc1ccc(CC(CC)CCCC)cc1)C(=O)Nc1c(F)cc(F)cc1F (stereo not drawn) [1-(n-Heptyl)-1-[4-(2-ethylhexyl)benzyl]-3-(2,4,6-trifluorophenyl)urea]	87%	82%	–	–	–
CCCCCCCN(Cc1ccc(CC(CC)CCCC)cc1)C(=O)Nc1ccc(F)cc1F (stereo not drawn) [1-(n-Heptyl)-1-[4-(2-ethylhexyl)benzyl]-3-(2,4-difluorophenyl)urea]	–	–	56%	63%	–
CCCCCCCN(Cc1ccc(CC(CC)CCCC)cc1)C(=O)Nc1c(C)cc(Cl)cc1C (stereo not drawn) [1-(n-Heptyl)-1-[4-(2-ethylhexyl)benzyl]-3-(4-chloro-2,6-dimethylphenyl)urea]	87%	83%	–	–	–
CCCCCCCN(Cc1ccc(CCO)cc1)C(=O)Nc1ccc(F)cc1F [1-(n-Heptyl)-1-[4-(2-hydroxyethyl)benzyl]-3-(2,4-difluorophenyl)urea]	–	–	59%	52%	–
CCCCCCCN(Cc1ccc(CC[S+]([O-])C(C)C)cc1)C(=O)Nc1c(C)cc(Cl)cc1C (stereo not drawn) [1-(n-Heptyl)-1-[4-(2-isopropylsulfinylethyl)benzyl]-3-(4-chloro-2,6-dimethylphenyl)urea]	–	–	54%	45%	–
CCCCCCCN(Cc1ccc(CCS(=O)(=O)C(C)C)cc1)C(=O)Nc1ccc(F)cc1F [1-(n-Heptyl)-1-[4-(2-isopropylsulfonylethyl)benzyl]-3-(2,4-difluorophenyl)urea]	–	–	68%	94%	–
CCCCCCCN(Cc1ccc(CCS(=O)(=O)C(C)C)cc1)C(=O)Nc1c(C)cc(Cl)cc1C [1-(n-Heptyl)-1-[4-(2-isopropylsulfonylethyl)benzyl]-3-(4-chloro-2,6-dimethylphenyl)urea]	–	–	54%	57%	–
CCCCCCCN(Cc1ccc(CCSC(C)C)cc1)C(=O)Nc1c(C)cc(Cl)cc1C [1-(n-Heptyl)-1-[4-(2-isopropylthioethyl)benzyl]-3-(4-chloro-2,6-dimethylphenyl)urea]	–	–	51%	49%	–
CCCCCCCN(Cc1ccc(CC(C)CC)cc1)C(=O)Nc1c(F)cc(F)cc1F (stereo not drawn) [1-(n-Heptyl)-1-[4-(2-methylbutyl)benzyl]-3-(2,4,6-trifluorophenyl)urea]	64%	76%	–	–	–
CCCCCCCN(Cc1ccc(CC(C)CC)cc1)C(=O)Nc1ccc(F)cc1F (stereo not drawn) [1-(n-Heptyl)-1-[4-(2-methylbutyl)benzyl]-3-(2,4-difluorophenyl)urea]	–	–	–	–	response vs control in vivo at 0.01 % [1]: 42%; response vs control in vivo at 0.01 % [2]: 36%
CCCCCCCN(Cc1ccc(CC(C)CCC)cc1)C(=O)Nc1c(F)cc(F)cc1F (stereo not drawn) [1-(n-Heptyl)-1-[4-(2-methylpentyl)benzyl]-3-(2,4,6-trifluorophenyl)urea]	75%	93%	–	–	–
CCCCCCCN(Cc1ccc(CC(C)CCC)cc1)C(=O)Nc1ccc(F)cc1F (stereo not drawn) [1-(n-Heptyl)-1-[4-(2-methylpentyl)benzyl]-3-(2,4-difluorophenyl)urea]	–	–	72%	53%	–
CCCCCCCN(Cc1ccc(CC(C)CCC)cc1)C(=O)Nc1c(C)cc(Cl)cc1C (stereo not drawn) [1-(n-Heptyl)-1-[4-(2-methylpentyl)benzyl]-3-(4-chloro-2,6-dimethylphenyl)urea]	56%	61%	–	–	–
CCCCCCCN(Cc1ccc(OCCC(C)C)cc1)C(=O)Nc1ccc(F)cc1F [1-(n-Heptyl)-1-[4-(3-methylbutoxy)benzyl]-3-(2,4-difluorophenyl)urea]	–	–	–	–	response vs control in vivo at 0.01 % [1]: 32%; response vs control in vivo at 0.01 % [2]: 27%
CCCCCCCN(Cc1ccc(CCC(C)CC)cc1)C(=O)Nc1c(F)cc(F)cc1F (stereo not drawn) [1-(n-Heptyl)-1-[4-(3-methylpentyl)benzyl]-3-(2,4,6-trifluorophenyl)urea]	–	–	46%	36%	–

Reference: patent US4623662A, “Antiatherosclerotic ureas and thioureas” (American Cyanamid Company, priority 1985, dated 1986)
